Patent US8957108B2, “Use of 5,6-dimethylxanthenone-4-acetic acid as an antiviral agent” (University of Maryland, Baltimore, priority 2006, dated 2015)

Key:
[1] = test system: peritoneal macrophages; assay: Quantitative real-time PCR of cytokine mRNA in murine peritoneal macrophages
[2] = test system: MEFs; assay: RANTES protein in MEF supernatants; type: cell-based, mouse; conditions: MAVS+/+ and MAVS−/− MEFs, 24 h
Description: IFN-β protein in cell culture supernatants was measured using a custom ELISA originally described in Weinstein, S. L. et al. (2000) “Phosphatidylinositol 3-Kinase And mTOR Mediate Lipopolysaccharide-Stimulated Nitric Oxide Production In Macrophages Via Interferon-Beta,” J. Leukocyte Biol. 67:405-414, with few modifications. […] Plates were blocked with 10% FCS in 1×PBS for 2 h at room temperature. Samples and a murine IFN-β standard (NIH, Bethesda, Md.) were added to wells and incubated overnight at 4° C. […] Wells were washed 3× followed by incubation with a 1:2000 dilution of goat anti-rabbit HRP (Cell Signaling Technologies, Beverly, Mass.) in 10% FCS-PBS for 1 h at room temperature. Plates were washed 3× and developed with TMB substrate (KPL, Gaithersburg, Md.). The reaction was stopped by addition of 1N H2SO4, and plates were read at 450 nm. RANTES and TNF-α were quantified using Luminex bead-based colorimetric assays. […] For stimulation of cells, poly(I:C) was mixed with Fugene 6 transfection reagent (Roche) at a ratio of 1:1 (volume:weight) in OptiMEM medium and incubated for 15 min prior to stimulation. Culture supernatants of cells (2×10^4) seeded on 96-well plates were collected after 24 h stimulation and analyzed for RANTES levels with ELISA. ELISA was performed according to the manufacturer's instructions (R&D Systems).

[3] = test system: IRF-3; assay: Native-PAGE and Western blotting for IRF-3 dimers; type: cell-based, mouse; conditions: macrophages pretreated with SA
Description: Rabbit anti-mouse IκBα phospho-specific Ab (pAb) was purchased from Santa Cruz Biotechnology, Inc. (Santa Cruz, Calif.). Rabbit anti-mouse MAPK pAb and rabbit anti-human phospho-IRF-3 pAb antibodies were purchased from Cell Signaling (Danvers, Mass.). Rabbit anti-mouse IRF-3 pAb was purchased from Zymed (South San Francisco, Calif.). Native-PAGE for the detection of IRF-3 dimers was carried out as described in Iwamura, T. et al. (2001) “Induction Of IRF-3/-7 Kinase And NF-kappaB in Response To Double-Stranded RNA And Virus Infection: Common And Unique Pathways,” Genes and Cells 6:375-388. Briefly, thioglycollate-elicited peritoneal macrophages were lysed following stimulation with either LPS or DMXAA as indicated. […] Membranes were probed with a 1:250 dilution of rabbit anti-mouse IRF-3 for 1 h at room temperature. Goat anti-rabbit IgG-HRP (Cell Signaling Technologies, Danvers, Mass.) at a 1:2000 dilution was used as the secondary Ab. Blots were developed with ECL Plus (Amersham Biosciences, Piscataway, N.J.).

[4] = peritoneal macrophages pretreated with SA

Molecule	TNF-α mRNA in the absence of TLR4 ([1]; TLR4−/− peritoneal macrophages, 2 h)	RANTES response in MAVS-deficient MEFs [2]	IRF-3 dimer formation and phosphorylation of serine 396 in response to DMXAA [3]	effect on DMXAA-induced IFN-β expression [1, 4]	effect on LPS-induced IFN-β mRNA expression [1, 4]
poly I:C [reference compound]	induces TNF-α to wild-type levels	completely abrogates			
O=C(O)c1ccccc1O [SA, salicylic acid, reference compound]			inhibits	dramatically reduces	essentially unaffected
